These results are taken from patent publication US7378446B2, “Compound having anti-HCV activity and process for producing the same” (Chugai Seiyaku Kabushiki Kaisha, priority 2003, dated 2008).

One data set is described as follows: in vitro. Format: cell-based. Particulars: human; replicon cells, 3 days culture with compound, Cell Counting Kit 8, absorbance 450 nm; read-out: Cytotoxicity CC50. As for the experimental part: (§1) A construct was prepared in which a luciferase gene derived from firefly was introduced as a reporter gene in HCV-RNA to assay the number of copies of HCV-RNA. The luciferase gene was introduced in the form of fusing with neomycin-resistance gene directly below the IRES (Internal Ribosome Entry Site) of the HCV gene in accordance with the method of Krieger, et al. (J. Virol. 75:4614). After synthesizing this RNA in vitro, it was introduced into Huh7 cell by electroporation and isolated as G418-resistant clone. Firefly luciferase HCV replicon cells (3-1) were suspended in Dulbecco's MEM (Gibco cat. no. 10569-010) containing 5% fetal bovine serum (Hyclone cat. no. SH30071.03), inoculated into the wells of a 96-well plate at 5000 cells/well and then cultured overnight at 37° C. and 5% CO2. Approximately 20 hours later, the diluted test compound was added at 10 μl per well followed by culturing for another 3 days. Two series of assay plates were prepared, and the assay was carried out using a white plate for one series and a clear plate for the other series. Following completion of culturing, the white plate was used for the Steady-Glo Luciferase Assay System (Promega cat. no. E2520). Namely, after adding 100 μl of reagent per well, mixing by a pipette 3 to 4 times and then allowing to stand for 5 minutes, luminescence was measured with the 1450 MicroBeta TRILUX (Wallac). Values obtained in the absence of cell addition were used as background values and subtracted from all values to calculate the IC50 (50% inhibitory concentration) of the drug based on a value of 0% inhibition for the value in the absence of addition of test compound.
The Cell Counting Kit 8 (Dojindo cat. no. CK04) was used to determine the cytotoxicity. Namely, 10 μl of Cell Counting Kit 8 were added to a clear plate and incubated for 30 to 60 minutes at 37° C. Absorbance at a wavelength of 450 nm and a control wavelength of 630 nm was measured with a 96-well plate reader. Values in the absence of cell addition were used as background values and subtracted from all values to calculate the CC50 (50% cell inhibitory concentration) of the drug based on a value of 0% inhibition for the value in the absence of addition of drug.
In general terms: Replicon systems follow genome replication, usually without infectious particles.

Data set [1] concerns Firefly luciferase HCV replicon cells (3-1). Nature of the data set: Replicon assay (firefly luciferase HCV replicon). The data set is classed as cell-based. The settings on record: Hepatitis C virus, 72 h; Huh7-derived luciferase HCV replicon cells, 3 days culture with compound, Steady-Glo luminescence. As for the experimental part: as §1

Usually CC50 stands for the concentration giving 50% cytotoxicity. What is called IC50 is the point on the concentration scale where inhibition reaches its midpoint. For `CCCCCCCC(=O)CCCCCC/C=C/[C@H](C(=O)N[C@@H](Cc1ccc(-c2cnc(OC)nc2)cc1)C(=O)O)[C@@](O)(CC(=O)O)C(=O)O` [Compound 81], the CC50 in “in vitro” was > 1000 nM. In addition, the IC50 in data set [1] is 8 nM.
Regarding `CCCCCCCC(=O)CCCCCC/C=C/[C@H](C(=O)N[C@@H](Cc1ccc(OCCCN)cc1)C(=O)O)[C@@](O)(CC(=O)O)C(=O)O` [Compound 82], in the data set “in vitro”, the CC50 is > 1000 nM. Further, in data set [1], the IC50 came out at 39 nM.
`CCCCCCCC(=O)CCCCCC/C=C/[C@H](C(=O)N[C@@H](Cc1ccc(OC2CCN(C)CC2)cc1)C(=O)O)[C@@](O)(CC(=O)O)C(=O)O` [Compound 83]: in “in vitro”, the CC50 is > 1000 nM. In addition, the IC50 in data set [1] was found to be 108 nM.
In the case of `CCCCCCCC(=O)CCCCCC/C=C/[C@H](C(=O)N[C@@H](Cc1ccc(OCCCN(C)C)cc1)C(=O)O)[C@@](O)(CC(=O)O)C(=O)O` [Compound 84], the CC50 in “in vitro” was > 1000 nM. In addition, the IC50 in data set [1] came to 43 nM.
On to `CCCCCCCC(=O)CCCCCC/C=C/[C@H](C(=O)N[C@@H](Cc1ccc(OCc2cccnc2)cc1)C(=O)O)[C@@](O)(CC(=O)O)C(=O)O` [Compound 85], for which, in “in vitro”, the CC50 was > 1000 nM. For the same compound, the IC50 in data set [1] stood at 1 nM.
`CCCCCCCC(=O)CCCCCC/C=C/[C@H](C(=O)N[C@@H](Cc1ccc(OCCN2CCOCC2)cc1)C(=O)O)[C@@](O)(CC(=O)O)C(=O)O` [Compound 86]: the CC50 in “in vitro” is > 1000 nM. In addition, in data set [1], the IC50 is 7 nM.
With `CCCCCCCC(=O)CCCCCC/C=C/[C@H](C(=O)N[C@@H](Cc1ccc(OCCN2CCNCC2)cc1)C(=O)O)[C@@](O)(CC(=O)O)C(=O)O` [Compound 87], the CC50 in the data set “in vitro” is > 1000 nM. For the same compound, the IC50 in data set [1] worked out at 38 nM.
For the compound `CCCCCCCC(=O)CCCCCC/C=C/[C@H](C(=O)N[C@@H](Cc1ccc(OCCCNCc2cccnc2)cc1)C(=O)O)[C@@](O)(CC(=O)O)C(=O)O` [Compound 88], the CC50 in the data set “in vitro” was > 1000 nM. Moreover, in data set [1], the IC50 was found to be 18 nM.
On to `CCCCCCCC(=O)CCCCCC/C=C/[C@H](C(=O)N[C@@H](Cc1ccc(OCCCN2CCN(C)CC2)cc1)C(=O)O)[C@@](O)(CC(=O)O)C(=O)O` [Compound 89], for which, in the data set “in vitro”, the half-maximal cytotoxic concentration (CC50) was > 1000 nM. Besides, in data set [1], the IC50 stood at 29 nM.
For the compound `CCCCCCCC(=O)CCCCCC/C=C/[C@H](C(=O)N[C@@H](Cc1ccc(N=[N+]=[N-])cc1)C(=O)O)[C@@](O)(CC(=O)O)C(=O)O` [Compound 90], the CC50 in “in vitro” was > 1000 nM. Moreover, the IC50 in data set [1] stood at 6 nM.
For `CCCCCCCC(=O)CCCCCC/C=C/[C@H](C(=O)N[C@@H](Cc1ccc(CNC(=O)OCC2c3ccccc3-c3ccccc32)cc1)C(=O)O)[C@@](O)(CC(=O)O)C(=O)O` [Compound 91], the CC50 in “in vitro” is > 1000 nM. The IC50 in data set [1] stood at 8 nM.
With `CCCCCCCC(=O)CCCCCC/C=C/[C@H](C(=O)N[C@@H](Cc1ccc(NS(C)(=O)=O)cc1)C(=O)O)[C@@](O)(CC(=O)O)C(=O)O` [Compound 92], in the data set “in vitro”, the CC50 is > 1000 nM. In data set [1], the IC50 came out at 2 nM.
In the case of `CCCCCCCC(=O)CCCCCC/C=C/[C@H](C(=O)N[C@@H](Cc1ccc(NC(C)=O)cc1)C(=O)O)[C@@](O)(CC(=O)O)C(=O)O` [Compound 93], in “in vitro”, the CC50 is > 1000 nM. In addition, the IC50 in data set [1] turned out to be 12 nM.
On to `CCCCCCCC(=O)CCCCCC/C=C/[C@H](C(=O)N[C@@H](Cc1ccc(CN)cc1)C(=O)O)[C@@](O)(CC(=O)O)C(=O)O` [Compound 94], for which, in “in vitro”, the CC50 was > 1000 nM. Also, in data set [1], the IC50 turned out to be 280 nM.
Consider `CCCCCCCC(=O)CCCCCC/C=C/[C@H](C(=O)N[C@@H](Cc1ccc(NC(=N)N)cc1)C(=O)O)[C@@](O)(CC(=O)O)C(=O)O` [Compound 95], for which the CC50 in the data set “in vitro” was > 1000 nM. The IC50 in data set [1] was 395 nM.
For `CCCCCCCC(=O)CCCCCC/C=C/[C@H](C(=O)N[C@@H](Cc1ccc(-n2cc(C(=O)OCC)nn2)cc1)C(=O)O)[C@@](O)(CC(=O)O)C(=O)O` [Compound 96], the half-maximal cytotoxic concentration (CC50) in “in vitro” is > 1000 nM. The IC50 in data set [1] was determined as 9 nM.
As to `CCCCCCCC(=O)CCCCCC/C=C/[C@H](C(=O)N[C@@H](Cc1cccnc1)C(=O)O)[C@@](O)(CC(=O)O)C(=O)O` [Compound 97], the CC50 in “in vitro” is > 1000 nM. Besides, the IC50 in data set [1] was found to be 302 nM.
For `CC(C)CCOc1ccc(C[C@H](NC(=O)[C@@H](/C=C/CCCCCCC(=O)CCCCCCF)[C@@](O)(CC(=O)O)C(=O)O)C(=O)O)cc1` [Compound 98], in that order: > 1000 nM and 21 nM.
In the case of `COCCCCCCC(=O)CCCCCC/C=C/[C@H](C(=O)N[C@@H](Cc1ccc(OCCC(C)C)cc1)C(=O)O)[C@@](O)(CC(=O)O)C(=O)O` [Compound 99], the CC50 in the data set “in vitro” is > 1000 nM. Besides, the IC50 in data set [1] came out at 56 nM.
Taken in the same sequence, the figures for `CCCCCCCCCC(=O)CCCC/C=C/[C@H](C(=O)N[C@@H](Cc1ccc(-c2ccccc2)cc1)C(=O)O)[C@@](O)(CC(=O)O)C(=O)O` [Compound 100] were > 1000 nM and 92 nM.
Take `CCCCCCCCCC(=O)CCCC/C=C/[C@H](C(=O)N[C@@H](Cc1ccc(Oc2ccccc2)cc1)C(=O)O)[C@@](O)(CC(=O)O)C(=O)O` [Compound 101]: the cytotoxic concentration (CC50) in the data set “in vitro” was > 1000 nM. Also, the IC50 in data set [1] amounted to 46 nM.
In the case of `CCCCCCC(=O)CCCCCC/C=C/[C@H](C(=O)N[C@@H](Cc1ccc(-c2ccccc2)cc1)C(=O)O)[C@@](O)(CC(=O)O)C(=O)O` [Compound 102], the cytotoxic concentration (CC50) in the data set “in vitro” is > 1000 nM. Also, the half-inhibitory concentration (IC50) in data set [1] came to 5 nM.
Take `CCCCCCC(=O)CCCCCC/C=C/[C@H](C(=O)N[C@@H](Cc1ccc(Oc2ccccc2)cc1)C(=O)O)[C@@](O)(CC(=O)O)C(=O)O` [Compound 103]: the CC50 in the data set “in vitro” was > 1000 nM. In data set [1], the IC50 stood at 11 nM.
With `CCCC#CCOc1ccc(C[C@H](NC(=O)[C@@H](/C=C/CCCCCCC(=O)CCCCCCC)[C@@](O)(CC(=O)O)C(=O)O)C(=O)O)cc1` [Compound 104], the CC50 in the data set “in vitro” is > 1000 nM. In addition, the IC50 in data set [1] was found to be 1 nM.
For the compound `C#CCOc1ccc(C[C@H](NC(=O)[C@@H](/C=C/CCCCCCC(=O)CCCCCCC)[C@@](O)(CC(=O)O)C(=O)O)C(=O)O)cc1` [Compound 105], in “in vitro”, the CC50 was > 1000 nM. Besides, the IC50 in data set [1] is 3 nM.
Consider `C#CCCCOc1ccc(C[C@H](NC(=O)[C@@H](/C=C/CCCCCCC(=O)CCCCCCC)[C@@](O)(CC(=O)O)C(=O)O)C(=O)O)cc1` [Compound 106], for which the CC50 in “in vitro” is > 1000 nM. For the same compound, in data set [1], the IC50 is 1 nM.
Taken in the same sequence, the figures for `CC#CCCOc1ccc(C[C@H](NC(=O)[C@@H](/C=C/CCCCCCC(=O)CCCCCCC)[C@@](O)(CC(=O)O)C(=O)O)C(=O)O)cc1` [Compound 107] were > 1000 nM and 1 nM.
Taken in the same sequence, the figures for `CCCCCCCC(=O)CCCCCC/C=C/[C@H](C(=O)N[C@@H](Cc1ccc(OCC#CCN(CC)CC)cc1)C(=O)O)[C@@](O)(CC(=O)O)C(=O)O` [Compound 108] were > 1000 nM and 3 nM.
`CCC#CCOc1ccc(C[C@H](NC(=O)[C@@H](/C=C/CCCCCCC(=O)CCCCCCC)[C@@](O)(CC(=O)O)C(=O)O)C(=O)O)cc1` [Compound 109]: the CC50 in “in vitro” was > 1000 nM. Besides, the IC50 in data set [1] came to 2 nM.
Turning to `CCCCCCCC#CCOc1ccc(C[C@H](NC(=O)[C@@H](/C=C/CCCCCCC(=O)CCCCCCC)[C@@](O)(CC(=O)O)C(=O)O)C(=O)O)cc1` [Compound 110], in “in vitro”, the CC50 was > 1000 nM. For the same compound, the IC50 in data set [1] stood at 5 nM.
With `CCCCCCCC(=O)CCCCCC/C=C/[C@H](C(=O)N[C@@H](Cc1ccc(OCC#CC#CC(C)(C)C)cc1)C(=O)O)[C@@](O)(CC(=O)O)C(=O)O` [Compound 111], the half-maximal cytotoxic concentration (CC50) in “in vitro” was > 1000 nM. Further, the IC50 in data set [1] stood at 6 nM.
